{"source": "patent US20240309065A1", "about": "“SHORT APOC-II MIMETIC PEPTIDES AND METHODS OF USE” (The United States of America, as represented by the …, priority 2021, published 2024)", "key": {"[1]": {"molecular_target": "T1, Pepsin A (Sus scrofa, UniProt P00791)", "T1 construct": "purchased Sigma Aldrich P6887-1G", "T1 sequence (P00791 60-385)": "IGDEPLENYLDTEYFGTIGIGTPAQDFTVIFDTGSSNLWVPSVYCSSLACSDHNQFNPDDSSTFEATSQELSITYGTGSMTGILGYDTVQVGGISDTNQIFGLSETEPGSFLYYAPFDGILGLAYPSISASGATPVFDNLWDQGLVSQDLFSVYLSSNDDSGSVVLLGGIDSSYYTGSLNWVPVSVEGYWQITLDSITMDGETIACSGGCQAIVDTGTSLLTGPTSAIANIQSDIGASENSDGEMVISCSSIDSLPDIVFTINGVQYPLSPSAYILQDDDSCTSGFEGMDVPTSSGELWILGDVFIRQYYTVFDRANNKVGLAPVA", "assay": "LPL activation ability following pepsin treatment", "format": "in vitro ADME", "settings": "1 mg/ml Pepsin A, pH 1.92, 1 hour at 37° C.; final concentration 10 µM of peptides", "description": "(§1) LPL activity was determined by measuring the generation of NEFA. In a 96-well plate, 0-10 μM of an apoC-II mimetic peptide, 7.45 nM of LPL from bovine milk (Sigma-Aldrich), apoC-II deficient ethylenediaminetetraacetic acid (EDTA)-plasma (diluted with PBS to a final TG concentration of 3 mg/dL), 10 IU/ml heparin, 1% bovine serum albumin (BSA) (ICN Biomedicals), and PBS (Life Technologies) were combined in a final reaction volume of 50 μL, pre-incubated on ice for 30 minutes, and incubated at 37° C. for 1 hour. NEFA were measured with a coupled enzyme reaction (FUJIFILM Wako Diagnostics), in a SpectraMax Plus 384 Microplate Reader.\nPeptide resistance to proteolysis was also tested. Peptides at 0.1 mM concentration were incubated at 37° C. in 20 mM ammonium bicarbonate buffer at pH 8.2 with 10 μg/ml trypsin or […] Proteinase K. The amount of intact peptide was monitored over 24-hour time period by MALDI-TOF using internal standards (Bombesin, ACTH (1-17), ACTH (18-39), and Insulin) to quantify the relative amount of peptide in each sample. As shown in FIGS. 16A-16D, the tested peptides had varying degrees of resistance to trypsin and proteinase K. In addition, peptides were tested for LPL activation ability following pepsin treatment. Peptides (1 mM stock) were prepared in 5 mM TRIS, pH 8.2. […] In vitro generated NEFA were measured by the colorimetric assay."}, "[2]": {"molecular_target": "T2, LPL from bovine milk (Bos taurus, UniProt P11151)", "T2 construct": "7.45 nM of LPL from bovine milk (Sigma-Aldrich); purchased Sigma-Aldrich; host or cells: bovine milk", "T2 sequence (P11151 29-478)": "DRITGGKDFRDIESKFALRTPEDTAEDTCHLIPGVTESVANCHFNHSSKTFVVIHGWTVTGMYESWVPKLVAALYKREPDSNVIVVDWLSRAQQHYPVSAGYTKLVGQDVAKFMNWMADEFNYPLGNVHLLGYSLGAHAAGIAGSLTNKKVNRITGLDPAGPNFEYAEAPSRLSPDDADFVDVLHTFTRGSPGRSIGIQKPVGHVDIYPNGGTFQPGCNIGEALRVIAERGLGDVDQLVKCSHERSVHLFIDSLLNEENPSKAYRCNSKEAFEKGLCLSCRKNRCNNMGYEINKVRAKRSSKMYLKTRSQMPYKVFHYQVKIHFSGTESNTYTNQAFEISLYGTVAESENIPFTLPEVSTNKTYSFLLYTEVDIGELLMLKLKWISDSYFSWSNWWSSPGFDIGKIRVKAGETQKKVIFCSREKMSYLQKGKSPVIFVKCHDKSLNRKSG", "assay": "LPL activation assay (generation of NEFA)", "format": "biochemical", "settings": "0-10 μM peptide, 7.45 nM LPL, apoC-II deficient plasma, 37° C. for 1 hour, NEFA measured", "description": "as §1"}, "[3]": {"assay": "DMPC vesicle solubilization assay", "settings": "0.5 mM peptides, DMPC vesicles 0.5 mg/mL in PBS pH 7.4, absorbance at 660 nm for 1 hour at 24° C.", "description": "Tested peptides were able to solubilize DPMC vesicles (FIG. 15). […] PBS as a negative control or 1% Triton as a positive control or 0.5 mM peptides were added to homogenous DMPC (Avanti 850345C) vesicles (0.5 mg/mL) in PBS, pH 7.4. In vitro turbidity change was monitored by following the absorbance at 660 nm for 1 hour at 24° C. Absorbance over time was plotted and the areas under the curve (AOC) were calculated."}, "[4]": {"test_system": "apoC-II knockout mice", "assay": "Peptide activity in vivo in apoC-II knockout mice", "settings": "single intraperitoneal injection 5 μmole/kg, blood at 1, 3, 6 and 24 hours; for triglycerides: compared to control", "description": "A study was performed comparing the effect of D6-PV (SEQ ID NO: 15) and SPH2S (SEQ ID NO: 5) peptides in apoC-II knockout mice. Mice were given a single intraperitoneal injection of the peptide (5 μmole/kg) and blood was collected at 1 hour, 3 hours, 6 hours and 24 hours after injection. Triglycerides, total cholesterol, and non-esterified fatty acids (NEFA) were measured."}}, "note": "Where a SMILES comes first, the peptide text is derived from it. Bridges are numbered along the chain shown (N, C = ends). Where no end group is shown, it is not given here. [ ]: non-standard residue; d: D form. The star is where a group is joined. R8 = C=CCCCCCC[C@@](C)(N)C(=O)O; S5 = C=CCCC[C@](C)(N)C(=O)O; dNle = CCCC[C@@H](N)C(=O)O; Nle = CCCC[C@H](N)C(=O)O; Octanoyl = CCCCCCCC(=O)*; Sar = CNCC(=O)O"}
{"molecule": "CCCC[C@H](NC(=O)[C@H](C)N)C(=O)N[C@]1(C)CCCCCCC=CCCCC2(CCCC=CCCCCCC[C@@](C)(C(=O)N[C@@H](CCCCN)C(=O)N(C)CC(=O)N[C@H](CCC(=O)O)C(=O)N[C@H](CCC(=O)O)C(=O)O)NC(=O)[C@H](C(C)C)NC(=O)[C@H](CO)NC(=O)[C@H](CC(C)C)NC(=O)[C@H](C(C)C)NC(=O)[C@H](CCC(N)=O)NC(=O)[C@H](CC(=O)O)NC2=O)NC(=O)[C@H](Cc2ccccc2)NC(=O)[C@H]([C@@H](C)CC)NC(=O)CNC(=O)[C@H]([C@@H](C)O)NC(=O)[C@H](Cc2ccc(O)cc2)NC(=O)[C@H]([C@@H](C)O)NC1=O", "note": "(stereo partly drawn) [SEQ ID NO: 18, A(Nle)(R8)TYTGIF(B5)DQVLSV(S8)K(Sarcosine)ee-COOH]", "values": [{"measurement": "LPL activation after pepsin treatment", "setting": "[1]", "result": "showed resistance to pepsin treatment"}]}
{"molecule": "CCCC[C@H](NC(=O)[C@H](C)NC(C)=O)C(=O)N[C@]1(C)CCCCCCC=CCCC[C@@](C)(C(=O)N[C@@H](CC(=O)O)C(=O)N[C@@H](CCC(N)=O)C(=O)N[C@H](C(=O)N[C@@H](CC(C)C)C(=O)N[C@@H](CO)C(=O)N[C@H](C(=O)N[C@@H](CC(C)C)C(=O)N[C@@H](CCCCN)C(=O)N(C)CC(=O)N[C@H](CCC(=O)O)C(=O)N[C@H](CCC(=O)O)C(=O)O)C(C)C)C(C)C)NC(=O)[C@H](Cc2ccccc2)NC(=O)[C@H]([C@@H](C)CC)NC(=O)CNC(=O)[C@H]([C@@H](C)O)NC(=O)[C@H](Cc2ccc(O)cc2)NC(=O)[C@H]([C@@H](C)O)NC1=O", "note": "[SEQ ID NO: 34, Ac-A(Nle)(R8)TYTGIF(S5)DQVLSVLK(Sarcosine)ee] (Ac-A[Nle][R8]TYTGIF[S5]DQVLSVLK[Sar][dE][dE]-OH; staple 3-10; C-terminus assumed)", "values": [{"measurement": "efficacy for activation of LPL", "setting": "[2]", "result": "did not affect LPL activation"}, {"measurement": "LPL activation after pepsin treatment", "setting": "[1]", "result": "showed resistance to pepsin treatment"}]}
{"molecule": "AMSTYTGIFTDQVLSVLKGEE [SEQ ID NO: 14, truncated ApoC-II peptide]", "values": [{"measurement": "solubilization of DMPC vesicles", "setting": "[3]", "result": "did not"}]}
{"molecule": "DYLKEVFEKLRDLYEKFTPAVSTYTGIFTDQVLSVLKGEE [SEQ ID NO: 15, control D6-PV peptide, reference compound]", "values": [{"measurement": "triglycerides", "setting": "[4]", "result": "decreased triglycerides to a similar extent"}]}
{"molecule": "EK(R8)RDLYSK(S5)TAAFSTYFGIFTDQVLSVLKGEE (EK[R8]RDLYSK[S5]TAAFSTYFGIFTDQVLSVLKGEE; staple 3-10) [SEQ ID NO: 25]", "values": [{"measurement": "efficacy for activation of LPL", "setting": "[2]", "result": "did reduce the efficacy"}]}
{"molecule": "EK(R8)RDLYSK(S5)TAAFSTYTFIFTDQVLSVLKGEE (EK[R8]RDLYSK[S5]TAAFSTYTFIFTDQVLSVLKGEE; staple 3-10) [SEQ ID NO: 26]", "values": [{"measurement": "efficacy for activation of LPL", "setting": "[2]", "result": "did not affect peptide efficacy"}]}
{"molecule": "Octanoic -A(Nle)(R8)TYTGIF(S5)DQVLSVLK(Sarcosine)ee [SEQ ID NO: 37]", "values": [{"measurement": "efficacy for activation of LPL", "setting": "[2]", "result": "did not affect LPL activation"}]}
{"molecule": "Octanoic-(R8)TYTGIF(S5)DQVLSVLK(Sarcosine)eeee (Octanoyl-[R8]TYTGIF[S5]DQVLSVLK[Sar][dE][dE][dE][dE]; staple 1-8) [SEQ ID NO: 39]", "values": [{"measurement": "efficacy for activation of LPL", "setting": "[2]", "result": "decreased peptide activity"}]}
{"molecule": "STAAM(R8)TYTGIF(S5)DQVLSVLKGEE (STAAM[R8]TYTGIF[S5]DQVLSVLKGEE; staple 6-13) [SEQ ID NO: 5]", "values": [{"measurement": "non-esterified fatty acids (NEFA)", "setting": "[4]", "result": "more effective than D6-PV"}, {"measurement": "total cholesterol", "setting": "[4]", "result": "more effective than D6-PV at decreasing total cholesterol"}, {"measurement": "triglycerides", "setting": "[4]", "result": "decreased triglycerides to a similar extent"}, {"measurement": "efficacy for activation of LPL", "setting": "[2]", "result": "increased efficacy"}]}
{"molecule": "a(nle)(R8)TYTGIF(S5)DQVLSVLK(Sarcosine)ee ([dA][dNle][R8]TYTGIF[S5]DQVLSVLK[Sar][dE][dE]; staple 3-10) [SEQ ID NO: 35]", "values": [{"measurement": "efficacy for activation of LPL", "setting": "[2]", "result": "decreased LPL activation abilities"}]}
{"molecule": "a(nle)(R8)TYTGIF(S5)DQVLSVLk(Sarcosine)ee ([dA][dNle][R8]TYTGIF[S5]DQVLSVL[dK][Sar][dE][dE]; staple 3-10) [SEQ ID NO: 36]", "values": [{"measurement": "efficacy for activation of LPL", "setting": "[2]", "result": "decreased LPL activation abilities"}]}
